Results published in article PMC8145110, “Design, Synthesis, and Antibacterial Screening of Some Novel Heteroaryl-Based Ciprofloxacin Derivatives as DNA Gyrase and Topoisomerase IV Inhibitors” (Pharmaceuticals, 2021).
Values after ≈ are worked out from the molar mass of the structure shown.

How the values were obtained:
E. coli = assay: MIC, two-fold serial dilution, E. coli; type: cell-based; settings: Escherichia coli; read-out: Minimum Inhibitory Concentration (MIC), E. coli
Protocol: (§1) Table 2, using the reference drug ciprofloxacin, was presented with the MICs (minimal inhibitory concentrations) of these compounds against tested bacteria. […] The nature of aromatic substitution in the oxadiazole moiety tends to be correlated with higher antibacterial effects and the activity increased with (Ar) in the order of 2-pyridyl ≥ 3-pyridyl > 4-pyridyl > 2-Cl-Ph > 2-naphthyl.
(§2) On 96-well microtiter plates and […] of fresh bacterial culture of a single McFarland unit overnight, a double serial dilution of each compound […] in sterile standard saline was prepared for every single source well. Ciprofloxacin antibiotic (5 mg/mL^−1) and normal saline were included as standard references in each assay (see Appendix A).
(§3) In 96-well microtiter plates and […] of fresh bacterial culture of a single McFarland unit overnight, a double serial dilution of each compound […] in sterile standard saline was prepared for every single source well. Ciprofloxacin antibiotic (5 mg/mL^−1) and normal saline were included as standard reference in each assay. The plates were incubated at 37 °C overnight. As an indicator of bacterial growth, […] of p-iodonitrotetrazolium violet (INT) was added to each well and incubated at 37 °C for 30 min. […] The colorless tetrazolidium salt acts as an electron accepter and is reduced to a red colored formazan product by biological activity organisms. Where bacterial growth was inhibited, the solution in the well remained clear after incubation with INT.

P. aeruginosa = assay: MIC, two-fold serial dilution, P. aeruginosa; type: cell-based; settings: Pseudomonas aeruginosa; read-out: Minimum Inhibitory Concentration (MIC), P. aeruginosa
Protocol: as §1, §2, §3

S. aureus = assay: MIC, two-fold serial dilution, S. aureus; type: cell-based, Staphylococcus aureus; settings: for MIC: Staphylococcus aureus, read-out: Minimum Inhibitory Concentration (MIC), S. aureus
Protocol: as §1, §2, §3

B. subtilis = assay: MIC, two-fold serial dilution, B. subtilis; type: cell-based; settings: Bacillus subtilis; read-out: Minimum Inhibitory Concentration (MIC), B. subtilis
Protocol: as §1, §2, §3

[1] = Cell viability assay (MTT); type: cell-based; parameters: dose or concentration left out as unconfirmed; settings: human, MCF-10A mammary gland epithelial cells, four days
Protocol: A human mammary gland epithelial cell line (MCF-10A) was used to conduct a cell viability assay. Compounds 2–6 were incubated with MCF-10A cells for four days, and the viability of the cells was determined using the 3-(4,5-dimethylthiazol-2-yl)-2,5-diphenyltetrazolium bromide (MTT) assay. All compounds had no cytotoxic effects, and the viability of the cells was greater than 85% for most of the compounds examined […], as shown in Table 4.
MTT Assay was performed to investigate the effect of compounds 2–6 on the viability of mammary epithelial cells (MCF-10A) (see Appendix A).

E. coli topoisomerase IV = biological target: T1, E. coli topoisomerase IV (Escherichia coli, UniProt P0AFI2+P20083); assay: E. coli topoisomerase IV assay; type: biochemical
T1 construct: purchased Inspiralis
T1 sequence (P0AFI2 whole entry): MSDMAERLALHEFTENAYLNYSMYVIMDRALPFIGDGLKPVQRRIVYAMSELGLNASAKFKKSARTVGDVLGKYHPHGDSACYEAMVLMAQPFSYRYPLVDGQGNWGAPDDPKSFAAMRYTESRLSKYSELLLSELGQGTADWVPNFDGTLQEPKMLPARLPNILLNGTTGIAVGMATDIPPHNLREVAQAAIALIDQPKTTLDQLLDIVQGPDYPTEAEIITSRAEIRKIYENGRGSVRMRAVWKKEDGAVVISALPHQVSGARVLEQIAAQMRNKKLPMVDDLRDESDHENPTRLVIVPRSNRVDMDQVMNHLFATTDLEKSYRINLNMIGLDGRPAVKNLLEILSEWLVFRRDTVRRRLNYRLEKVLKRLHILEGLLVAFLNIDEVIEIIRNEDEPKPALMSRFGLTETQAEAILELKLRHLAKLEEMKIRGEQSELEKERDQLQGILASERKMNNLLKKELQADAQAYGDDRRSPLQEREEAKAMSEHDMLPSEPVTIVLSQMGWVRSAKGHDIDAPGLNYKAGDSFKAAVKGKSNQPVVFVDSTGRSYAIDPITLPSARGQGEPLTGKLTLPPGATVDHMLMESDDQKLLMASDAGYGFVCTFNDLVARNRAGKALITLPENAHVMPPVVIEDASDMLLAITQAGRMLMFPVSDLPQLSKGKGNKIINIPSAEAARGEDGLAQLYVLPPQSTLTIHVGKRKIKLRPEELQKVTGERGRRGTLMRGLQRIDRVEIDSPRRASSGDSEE
T1 sequence (P20083 whole entry): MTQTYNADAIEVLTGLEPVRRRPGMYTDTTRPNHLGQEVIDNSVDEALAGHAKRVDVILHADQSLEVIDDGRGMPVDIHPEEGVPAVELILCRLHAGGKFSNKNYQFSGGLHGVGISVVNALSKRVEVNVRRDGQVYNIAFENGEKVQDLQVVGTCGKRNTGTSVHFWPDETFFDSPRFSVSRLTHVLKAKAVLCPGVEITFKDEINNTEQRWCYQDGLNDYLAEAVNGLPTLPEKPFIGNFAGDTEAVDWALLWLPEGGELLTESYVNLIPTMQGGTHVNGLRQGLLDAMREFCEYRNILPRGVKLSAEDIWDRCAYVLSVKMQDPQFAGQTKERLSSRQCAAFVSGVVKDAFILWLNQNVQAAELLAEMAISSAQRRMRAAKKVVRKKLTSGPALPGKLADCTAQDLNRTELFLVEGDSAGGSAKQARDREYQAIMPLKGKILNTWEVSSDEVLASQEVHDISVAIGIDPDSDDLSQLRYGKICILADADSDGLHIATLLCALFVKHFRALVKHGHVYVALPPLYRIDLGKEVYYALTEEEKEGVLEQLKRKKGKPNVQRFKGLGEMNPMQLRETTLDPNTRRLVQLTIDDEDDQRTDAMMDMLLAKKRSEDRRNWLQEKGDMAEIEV
Protocol: (§4) IC50 assay determination was carried out in accordance with the procedures previously stated (see Appendix A).
(§5) Inhibitory activities were determined in an assay from Inspiralis on streptavidin-coated 96-well microtiter plates from Thermo scientific Pierce. […] After washing off the unbound oligonucleotide, the enzyme test was performed. […] After that, the TF buffer (50 mM NaOAc with pH 5.0, 50 mM NaCl and 50 mM MgCl2) was added to terminate the enzymatic reaction. After additional incubation for 30 min at rt, during which biotin-oligonucleotide-plasmid triplex was 19 formed, the unbound plasmid was washed off using TF buffer and SybrGOLD in T10 buffer (10 mM Tris HCl with pH 8.0 and 1 mM EDTA) was added. […] Initial screening was done at 100 or 10 μM concentration of inhibitors. […] GraphPad Prism software was used to calculate the IC50 values. The result is given as the average value of three independent measurements. […] Determination of inhibitory activities on E. coli and S. aureus Topoisomerase IV IC50 values were determined in an assay from Inspiralis on streptavidin-coated 96-well microtiter plates from Thermo scientific Pierce. […] After washing off the unbound oligonucleotide, the enzyme test was performed. The reaction volume of 30 μL in buffer (40 mM HEPES KOH with pH 7.6, 100 mM potassium glutamate, 10 mM magnesium acetate, 10 mM DTT, 1 mM ATP, 0.05 mg/mL albumin) contained 1.5 U of topoisomerase IV from E. coli or S. aureus, 0.75 μg of pNO1 supercoiled plasmid, and 3 μL solution of the inhibitor in DMSO (10%) and Tween 20 (0.008%). […] After additional incubation for 30 min at rt, during which triplex (biotin-oligonucleotide-plasmid) was formed, the unbound plasmid was washed off using TF buffer and SybrGOLD in T10 buffer (10 mM Tris HCl with pH 8.0 and 1 mM EDTA) was added. […] Initial screening was done at 100 or 10 μM concentration of inhibitors. […] GraphPad Prism software was used to calculate the IC50 values. The result is given as the average value of three independent measurements.

E. coli DNA gyrase = biological target: T2, E. coli DNA gyrase (Escherichia coli, UniProt P0AES4+P0AES6); assay: E. coli DNA gyrase assay; type: biochemical
T2 construct: purchased Inspiralis
T2 sequence (P0AES4 whole entry, one chain of several): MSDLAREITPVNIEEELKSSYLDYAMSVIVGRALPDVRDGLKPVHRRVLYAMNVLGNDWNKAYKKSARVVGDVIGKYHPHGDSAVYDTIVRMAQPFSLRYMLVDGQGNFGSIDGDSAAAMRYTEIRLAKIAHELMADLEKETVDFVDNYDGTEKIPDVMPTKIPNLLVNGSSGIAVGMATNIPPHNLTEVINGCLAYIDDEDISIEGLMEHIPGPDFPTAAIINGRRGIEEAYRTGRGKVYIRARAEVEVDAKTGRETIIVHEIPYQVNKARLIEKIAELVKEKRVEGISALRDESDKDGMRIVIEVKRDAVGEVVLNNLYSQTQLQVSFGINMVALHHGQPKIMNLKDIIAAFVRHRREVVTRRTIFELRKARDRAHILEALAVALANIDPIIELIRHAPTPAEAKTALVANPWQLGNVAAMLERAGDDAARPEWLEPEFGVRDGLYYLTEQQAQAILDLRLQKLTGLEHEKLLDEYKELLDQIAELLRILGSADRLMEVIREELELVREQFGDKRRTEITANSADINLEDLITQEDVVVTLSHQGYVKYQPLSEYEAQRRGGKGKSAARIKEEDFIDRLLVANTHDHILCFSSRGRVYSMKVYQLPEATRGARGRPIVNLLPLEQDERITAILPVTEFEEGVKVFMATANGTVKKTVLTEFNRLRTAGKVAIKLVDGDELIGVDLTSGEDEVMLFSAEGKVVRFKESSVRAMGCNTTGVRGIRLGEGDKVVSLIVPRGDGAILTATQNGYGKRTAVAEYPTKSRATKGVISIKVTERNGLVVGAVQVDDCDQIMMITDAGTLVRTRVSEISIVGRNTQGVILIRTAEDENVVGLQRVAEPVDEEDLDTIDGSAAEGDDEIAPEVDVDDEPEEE
Protocol: as §4, §5

[2] = system: Escherichia coli (ATCC 11775); assay: Kirby-Bauer disc diffusion, E. coli; type: cell-based; settings: % of ciprofloxacin
Protocol: (§6) An updated Kirby-Bauer disc diffusion method was used to assess the antimicrobial activity of the tested samples [32, 33, 34, 35]. Using ciprofloxacin as a reference drug, synthetic compounds 1–21 were tested in vitro for antibacterial activity against S. aureus and B. subtilis as Gram-positive strains and E. coli and P. aeruginosa as Gram-negative strains. […]. […].
(§7) The cultures used were collected from the Cairo University’s Microanalytical Centre, Faculty of Science. An updated Kirby-Bauer disc diffusion method was applied for antimicrobial activities of the tests 1–21 compounds [32, 33, 34, 35]. See Appendix A.
(§8) The cultures used were collected from the Cairo University’s Microanalytical Centre, Faculty of Science. An updated Kirby-Bauer disc diffusion method was applied for the antimicrobial activities of the tests for compounds 1–21 [28]. Shortly after, 10 mL of fresh medium was grown to 100 μL bacteria/food until a count of 10^8 cells/mL or 10^5 cells/mL was achieved. One hundred μL microbial suspension was spread over agar plates that suited the broth in which it was held. The selected colonies of each organism that may play a pathogenic function should be from the primary agar plates and tested by the disc diffusion method for susceptibility. Plates inoculated with filamentous fungi as Aspergillus flavus were incubated at 25 °C for 48 h; Gram positive bacteria as Staphylococcus aureus (ATCC 12600, Microanalytical center, Cairo, Egypt), Bacillus subtilis (ATCC 6051); Gram negative bacteria as Escherichia coli (ATCC 11775), Pseudomonas aeuroginosa (ATCC 10145) were incubated at 35–37 °C for 24–48 h and yeast as Candida albicans (ATCC 7102) was incubated at 30 °C for 24–48 h and, then the diameters of the inhibition zones were measured in millimeters. […] For the disc diffusion, the zone diameters were measured with slipping calipers of the National Committee for Clinical Laboratory Standards, and the results are given in Table 1. […]

[3] = system: Staphylococcus aureus (ATCC 12600); assay: Kirby-Bauer disc diffusion, S. aureus; type: cell-based; settings: % of ciprofloxacin
Protocol: as §6, §7
as §8, with “millimeters. Standard discs of ciprofloxacin (antibacterial agent), fluconazole (antifungal agent) served as positive controls for antimicrobial activity, but filter discs impregnated with 10 µL of solvent (distilled water, chloroform, DMSO) were used as a negative control. Blank paper disks (Schleicher and Schuell, Cytiva, Spain) with a diameter of 8.0 mm were impregnated with 10 µL of tested concentration of the stock solutions. When a filter paper disc impregnated with a tested chemical is placed on agar, the chemical will diffuse from the disc into the agar. This diffusion will place the chemical in the agar only around the disc. The solubility of the chemical and its molecular size will determine the size of the area of chemical infiltration around the disc.” for “millimeters.”

[4] = system: Bacillus subtilis (ATCC 6051); assay: Kirby-Bauer disc diffusion, B. subtilis; type: cell-based; settings: % of ciprofloxacin
Protocol: as §6, §7
(§9) The cultures used were collected from the Cairo University’s Microanalytical Centre, Faculty of Science. An updated Kirby-Bauer disc diffusion method was applied for the antimicrobial activities of the tests for compounds 1–21 [28]. […] Plates inoculated with filamentous fungi as Aspergillus flavus were incubated at 25 °C for 48 h; Gram positive bacteria as Staphylococcus aureus (ATCC 12600, Microanalytical center, Cairo, Egypt), Bacillus subtilis (ATCC 6051); Gram negative bacteria as Escherichia coli (ATCC 11775), Pseudomonas aeuroginosa (ATCC 10145) were incubated at 35–37 °C for 24–48 h and yeast as Candida albicans (ATCC 7102) was incubated at 30 °C for 24–48 h and, then the diameters of the inhibition zones were measured in millimeters. […]

[5] = system: Pseudomonas aeuroginosa (ATCC 10145); assay: Kirby-Bauer disc diffusion, P. aeruginosa; type: cell-based, Pseudomonas aeruginosa; settings: % of ciprofloxacin
Protocol: as §6, §7, §9

[6] = biological target: S. aureus topoisomerase IV; parameters: method as in PMID 29206345; settings: value given in method; read-out: IC50 of internal standard, S. aureus topoisomerase IV; cited from earlier work

| Structure (SMILES) | MIC (E. coli) [mg/L] | MIC (P. aeruginosa) [mg/L] | MIC, S. aureus (S. aureus) [mg/L] | MIC (S. aureus) [mg/L] | MIC (B. subtilis) [mg/L] | viability at 4 days [1] [%] | remaining activity at 1 µM (E. coli topoisomerase IV; read-out: RA (%), residual activity of E. coli Topo IV) [%] | remaining activity at 1 µM (E. coli DNA gyrase; read-out: RA (%), residual activity of E. coli DNA Gyrase) [%] | melting point [°C] | antibacterial activity relative to ciprofloxacin, E. coli [2] | IC50 (E. coli topoisomerase IV) [µM] | IC50 (E. coli DNA gyrase) [µM] | antibacterial activity relative to ciprofloxacin, S. aureus [3] | antibacterial activity relative to ciprofloxacin, B. subtilis [4] [%] | antibacterial activity relative to ciprofloxacin, P. aeruginosa [5] [%] | IC50 [6] [µM] |
| --- | --- | --- | --- | --- | --- | --- | --- | --- | --- | --- | --- | --- | --- | --- | --- | --- |
| O=C(O)c1cn(C2CC2)c2cc(N3CCNCC3)c(F)cc2c1=O [Ciprofloxacin] | 0.06 (≈ 0.181 µM) | 0.06 (≈ 0.181 µM) | 0.03 (≈ 0.0905 µM) | 0.03 (≈ 0.0905 µM) | 0.01 (≈ 0.0302 µM) |  |  |  |  |  |  |  |  |  |  |  |
| O=C(O)c1cn(C2CC2)c2cc(N3CCN(Cn4nc(-c5ccccc5Cl)oc4=S)CC3)c(F)cc2c1=O [Compound 2, 7-{4-[5-(2-Chloro-phenyl)-2-thioxo-[1,3,4]oxadiazol-3-ylmethyl]-piperazin-1-yl}-1-cyclopropyl-6-fluoro-4-oxo-1,4-dihydro-quinoline-3-carboxylic acid] | 0.125 (≈ 0.225 µM) | 0.125 (≈ 0.225 µM) | 0.062 (≈ 0.112 µM) | 0.162 (≈ 0.291 µM) | 0.125 (≈ 0.225 µM) | 87 | 89 | 57 | 226 |  |  |  |  |  |  |  |
| O=C(O)c1cn(C2CC2)c2cc(N3CCN(Cn4nc(-c5ccccn5)oc4=S)CC3)c(F)cc2c1=O [Compound 4, 1-Cyclopropyl-6-fluoro-4-oxo-7-[4-(5-pyridin-2-yl-2-thioxo-[1,3,4]oxadiazol-3-yl-methyl)-piperazin-1-yl]-1,4-dihydro-quinoline-3-carboxylic acid] | 0.062 (≈ 0.119 µM) | 0.062 (≈ 0.119 µM) |  | 0.035 (≈ 0.067 µM) | 0.125 (≈ 0.239 µM) | 89 |  |  | 218 | equipotent | 1.47 ± 0.2 | 0.042 ± 0.007 | equipotent |  |  |  |
| O=C(O)c1cn(C2CC2)c2cc(N3CCN(Cn4nc(-c5cccnc5)oc4=S)CC3)c(F)cc2c1=O [Compound 5, 1-Cyclopropyl-6-fluoro-4-oxo-7-[4-(5-pyridin-3-yl-2-thioxo-[1,3,4]oxadiazol-3-yl-methyl)-piperazin-1-yl]-1,4-dihydro-quinoline-3-carboxylic acid] | 0.062 (≈ 0.119 µM) | 0.125 (≈ 0.239 µM) |  | 0.035 (≈ 0.067 µM) | 0.125 (≈ 0.239 µM) | 91 |  |  | 230 | equipotent | 6.8 ± 0.2 | 0.092 ± 0.009 | equipotent |  |  |  |
| O=C(O)c1cn(C2CC2)c2cc(N3CCN(Cn4nc(-c5ccncc5)oc4=S)CC3)c(F)cc2c1=O [Compound 6, 1-Cyclopropyl-6-fluoro-4-oxo-7-[4-(5-pyridin-4-yl-2-thioxo-[1,3,4]oxadiazol-3-yl-methyl)-piperazin-1-yl]-1,4-dihydro-quinoline-3-carboxylic acid] | 0.125 (≈ 0.239 µM) | 0.125 (≈ 0.239 µM) |  | 0.031 (≈ 0.0593 µM) | 0.125 (≈ 0.239 µM) | 87 |  |  |  |  | 8.92 ± 0.2 | 0.18 ± 0.02 | 120% |  |  |  |
| O=C(O)c1cn(C2CC2)c2cc(N3CCN(CN4C(=O)SC(=Cc5ccccc5)C4=O)CC3)c(F)cc2c1=O [Compound 16, 7-[4-(5-Benzylidene-2,4-dioxo-thiazolidin-3-ylmethyl)-piperazin-1-yl]-1-cyclo-propyl-6-fluoro-4-oxo-1,4-dihydro-quinoline-3-carboxylic acid] |  |  |  |  |  |  |  |  | 237 | 93% |  |  | 85% | 93 | 93 |  |
| CO[C@@H]1[C@@H](OC(N)=O)[C@@H](O)[C@H](Oc2ccc3c(O)c(NC(=O)c4ccc(O)c(CC=C(C)C)c4)c(=O)oc3c2C)OC1(C)C [Novobiocin] |  |  |  |  |  |  |  |  |  |  |  |  |  |  |  | 26.7 |
